Where “and” joins values, the source holds several entries; their conditions need not be identical. Identical values can stand only once.
Settings: 283.15 K, Liquid, Vibrating tube method

CCCCCC(=O)OCC(COC(=O)CCCCC)(COC(=O)CCCCC)COC(=O)CCCCC [pentaerythritol tetrahexanoate]
Settings	mass density
5731.2 kPa	1007.5 kg/m3
5738.3 kPa	1007.6 kg/m3
5746.2 kPa	1007.4 kg/m3
5753.3 kPa	1007.5 kg/m3
5760 kPa	1007.4 kg/m3
5767.3 kPa	1007.5 kg/m3
5775.5 kPa	1007.5 kg/m3
5783.9 kPa	1007.6 kg/m3
5790.7 kPa	1007.4 kg/m3
5797.8 kPa	1007.5 kg/m3
5804.7 kPa	1007.5 kg/m3
5812.8 kPa	1007.6 kg/m3
5819.9 kPa	1007.5 kg/m3
5826.8 kPa	1007.5 kg/m3
5833.7 kPa	1007.4 kg/m3
5842.2 kPa	1007.5 kg/m3
5849.3 kPa	1007.5 kg/m3
5856.6 kPa	1007.5 kg/m3
5863.6 kPa	1007.7 kg/m3
5872 kPa	1007.5 kg/m3
5878.9 kPa	1007.5 kg/m3
5885.8 kPa	1007.5 kg/m3
5894.4 kPa	1007.7 kg/m3
5901.3 kPa	1007.5 kg/m3
5908.3 kPa	1007.6 kg/m3
5915.7 kPa	1007.5 kg/m3
5924.3 kPa	1007.6 kg/m3
5930 kPa	1007.7 kg/m3
5935.7 kPa	1007.7 kg/m3
5942.8 kPa	1007.6 kg/m3
5953 kPa	1007.5 kg/m3
5960.1 kPa	1007.6 kg/m3
5968.6 kPa	1007.6 kg/m3
5976.4 kPa	1007.6 kg/m3
5984.7 kPa	1007.6 kg/m3
5991.9 kPa	1007.6 kg/m3
5999.2 kPa	1007.7 kg/m3
6006.6 kPa	1007.7 kg/m3
6015.4 kPa	1007.6 kg/m3
6022.9 kPa	1007.7 kg/m3
6030.1 kPa	1007.6 kg/m3
6038.8 kPa	1007.8 kg/m3
6046 kPa	1007.6 kg/m3
6053.1 kPa	1007.6 kg/m3
6061.9 kPa	1007.7 kg/m3
6069.2 kPa	1007.6 kg/m3
6076.6 kPa	1007.8 kg/m3
6084.1 kPa	1007.7 kg/m3
6092.7 kPa	1007.8 kg/m3
6100.3 kPa	1007.7 kg/m3
6107.6 kPa	1007.6 kg/m3
6115.2 kPa	1007.6 kg/m3
6124 kPa	1007.8 kg/m3
6131.6 kPa	1007.7 kg/m3
6139 kPa	1007.7 kg/m3
6146.6 kPa	1007.7 kg/m3
6155.4 kPa	1007.7 kg/m3
6163 kPa	1007.7 kg/m3
6170.1 kPa	1007.8 kg/m3
6179.1 kPa	1007.7 kg/m3
6186.9 kPa	1007.6 kg/m3
6194.5 kPa	1007.8 kg/m3
6202.1 kPa	1007.8 kg/m3
6209.7 kPa	1007.9 kg/m3
6218.9 kPa	1007.8 kg/m3
6226.1 kPa	1007.8 kg/m3
6233.7 kPa	1007.8 kg/m3
6242.7 kPa	1007.8 kg/m3
6250.3 kPa	1007.9 kg/m3
6257.9 kPa	1007.8 kg/m3
6265.5 kPa	1007.8 kg/m3
6274.9 kPa	1007.7 kg/m3
6282.3 kPa	1007.9 kg/m3
6290.1 kPa	1007.8 kg/m3
6299.1 kPa	1007.7 kg/m3
6306.5 kPa	1007.9 kg/m3
6314.3 kPa	1007.8 kg/m3
6323.1 kPa	1007.8 kg/m3
6330.4 kPa	1007.8 kg/m3
6338.1 kPa	1007.8 kg/m3
6346.1 kPa	1007.8 kg/m3
6355.4 kPa	1007.9 kg/m3
6362.3 kPa	1007.8 kg/m3
6369.9 kPa	1007.8 kg/m3
6377.7 kPa	1007.8 kg/m3
6386.6 kPa	1007.9 kg/m3
6394.2 kPa	1007.9 kg/m3
6401.7 kPa	1007.9 kg/m3
6409.5 kPa	1007.9 kg/m3
6418.4 kPa	1007.9 kg/m3
6426 kPa	1007.9 kg/m3
6433.3 kPa	1007.9 kg/m3
6442.5 kPa	1007.9 kg/m3
6450.4 kPa	1007.9 kg/m3
6458.4 kPa	1007.9 kg/m3
6466.9 kPa	1007.9 kg/m3
6474.6 kPa	1007.9 kg/m3
6481.9 kPa	1008 kg/m3
6491.1 kPa	1007.8 kg/m3
6498.3 kPa	1008 kg/m3
6505.6 kPa	1008 kg/m3
6514.4 kPa	1007.8 kg/m3
6522 kPa	1007.9 kg/m3
6529.2 kPa	1007.9 kg/m3
6536.7 kPa	1008 kg/m3
6545 kPa	1008 kg/m3
6552.2 kPa	1007.9 kg/m3
6559.5 kPa	1008.1 kg/m3
6566.4 kPa	1007.9 kg/m3
6573.6 kPa	1008 kg/m3
6578.7 kPa	1007.9 kg/m3
6583 kPa	1008 kg/m3
6587.1 kPa	1008 kg/m3
6592.1 kPa	1007.9 kg/m3
6596.3 kPa	1008 kg/m3
6600.4 kPa	1008.1 kg/m3
6605.4 kPa	1007.9 kg/m3
6609.2 kPa	1007.9 kg/m3
6613.4 kPa	1007.9 kg/m3
6635.7 kPa	1008 kg/m3
6640 kPa	1008 kg/m3
6644.1 kPa	1008.1 kg/m3
6649 kPa	1008 kg/m3
6674.5 kPa	1008 kg/m3
6679.6 kPa	1008 kg/m3
6683.5 kPa	1008.1 kg/m3
6687.7 kPa	1008.1 kg/m3
6692 kPa	1008.1 kg/m3
6696.5 kPa	1008 kg/m3
6700.6 kPa	1008 kg/m3
6704.6 kPa	1008 kg/m3
6708.6 kPa	1008 kg/m3
6713.2 kPa	1008 kg/m3
6717.2 kPa	1008.1 kg/m3
6759.5 kPa	1008.1 kg/m3
6769.5 kPa	1008.2 kg/m3 and 1008.1 kg/m3
6769.7 kPa	1008.1 kg/m3 and 1008 kg/m3
6769.8 kPa	1008 kg/m3 and 1008.2 kg/m3 and 1008.1 kg/m3
6770 kPa	1008.1 kg/m3
6770.2 kPa	1008 kg/m3 and 1008.1 kg/m3
6770.3 kPa	1008.1 kg/m3
6770.4 kPa	1008.1 kg/m3
6770.5 kPa	1008.1 kg/m3
6770.7 kPa	1008 kg/m3
6770.9 kPa	1008 kg/m3 and 1008.1 kg/m3
